Experimental data published in ChEMBL document CHEMBL2311489 (Eur J Med Chem, 2013).
Calls of active or inactive are those of the source. No cut-off for these calls is given here.

Tests used:
[1] = molecular target: 5-hydroxytryptamine receptor 2A (Homo sapiens, UniProt P28223); assay: biochemical
Description: Displacement of [3H]-ketanserin from human 5HT2A receptor expressed in HEK293 after 1.5 hrs

[2] = molecular target: T1, 5-hydroxytryptamine receptor 7 (Homo sapiens, UniProt P34969); assay: biochemical
[3] = molecular target: T2, 5-hydroxytryptamine receptor 6 (Homo sapiens, UniProt P50406); assay: biochemical
T2 sequence (P50406 whole entry): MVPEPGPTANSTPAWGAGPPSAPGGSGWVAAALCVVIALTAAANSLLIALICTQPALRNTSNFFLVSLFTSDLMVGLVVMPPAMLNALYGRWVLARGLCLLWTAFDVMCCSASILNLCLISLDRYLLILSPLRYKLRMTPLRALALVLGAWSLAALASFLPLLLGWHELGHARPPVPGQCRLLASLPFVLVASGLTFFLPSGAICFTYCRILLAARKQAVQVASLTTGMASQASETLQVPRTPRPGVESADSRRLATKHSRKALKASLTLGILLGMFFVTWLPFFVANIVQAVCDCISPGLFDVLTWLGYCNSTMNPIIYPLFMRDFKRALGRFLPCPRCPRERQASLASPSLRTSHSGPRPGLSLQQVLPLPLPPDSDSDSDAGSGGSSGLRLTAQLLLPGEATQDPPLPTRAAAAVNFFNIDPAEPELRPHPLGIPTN
Description: (§1) Displacement of [3H]-LSD from human 5HT6 receptor expressed in HEK293 after 1 hr

[4] = molecular target: T3, 5-hydroxytryptamine receptor 1A (Homo sapiens, UniProt P08908); assay: biochemical
T3 sequence (P08908 whole entry): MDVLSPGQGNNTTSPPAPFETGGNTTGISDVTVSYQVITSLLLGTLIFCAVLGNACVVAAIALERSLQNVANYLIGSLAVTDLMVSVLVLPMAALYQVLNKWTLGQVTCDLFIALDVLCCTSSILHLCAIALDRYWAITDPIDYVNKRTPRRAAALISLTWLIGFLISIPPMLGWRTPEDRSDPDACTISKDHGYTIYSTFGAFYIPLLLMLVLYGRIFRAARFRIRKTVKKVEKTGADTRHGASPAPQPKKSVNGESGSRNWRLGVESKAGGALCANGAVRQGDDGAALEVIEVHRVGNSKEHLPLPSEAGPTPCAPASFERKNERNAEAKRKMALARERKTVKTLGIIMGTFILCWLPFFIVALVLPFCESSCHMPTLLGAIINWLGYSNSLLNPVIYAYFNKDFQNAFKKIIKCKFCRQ

[5] = molecular target: Sodium-dependent serotonin transporter (Rattus norvegicus, UniProt P31652); assay: biochemical
Sodium-dependent serotonin transporter, sequence (P31652 whole entry): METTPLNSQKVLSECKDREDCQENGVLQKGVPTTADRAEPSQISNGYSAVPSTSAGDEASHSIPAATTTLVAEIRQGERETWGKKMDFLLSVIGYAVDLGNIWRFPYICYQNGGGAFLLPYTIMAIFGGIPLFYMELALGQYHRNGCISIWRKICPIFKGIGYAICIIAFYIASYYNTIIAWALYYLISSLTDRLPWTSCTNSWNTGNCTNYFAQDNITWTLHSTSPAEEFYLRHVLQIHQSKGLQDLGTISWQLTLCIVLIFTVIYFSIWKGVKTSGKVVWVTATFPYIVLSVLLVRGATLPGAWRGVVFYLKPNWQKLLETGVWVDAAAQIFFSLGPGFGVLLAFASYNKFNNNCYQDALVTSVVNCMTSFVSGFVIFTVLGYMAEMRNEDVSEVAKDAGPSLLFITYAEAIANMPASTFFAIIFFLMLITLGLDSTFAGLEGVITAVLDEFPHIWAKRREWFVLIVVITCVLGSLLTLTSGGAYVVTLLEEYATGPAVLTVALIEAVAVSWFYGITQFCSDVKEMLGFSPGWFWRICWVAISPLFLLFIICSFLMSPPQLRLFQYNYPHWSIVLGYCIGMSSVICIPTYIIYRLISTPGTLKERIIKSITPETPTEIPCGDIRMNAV

[6] = molecular target: D(2) dopamine receptor (Homo sapiens, UniProt P14416); assay: biochemical; format: cell-based, HEK293
D(2) dopamine receptor, sequence (P14416 whole entry): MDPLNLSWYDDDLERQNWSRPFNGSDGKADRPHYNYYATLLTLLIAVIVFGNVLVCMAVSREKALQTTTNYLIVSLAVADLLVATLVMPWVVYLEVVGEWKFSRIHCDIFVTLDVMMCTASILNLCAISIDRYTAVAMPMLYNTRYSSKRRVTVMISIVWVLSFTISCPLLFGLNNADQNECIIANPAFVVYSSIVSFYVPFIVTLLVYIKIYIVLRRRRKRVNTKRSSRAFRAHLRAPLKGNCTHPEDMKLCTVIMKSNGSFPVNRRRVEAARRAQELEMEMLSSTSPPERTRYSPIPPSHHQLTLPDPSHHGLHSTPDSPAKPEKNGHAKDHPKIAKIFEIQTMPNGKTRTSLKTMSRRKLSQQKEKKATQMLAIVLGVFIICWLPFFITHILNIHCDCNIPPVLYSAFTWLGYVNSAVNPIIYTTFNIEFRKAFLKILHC
Description: Displacement of [3H]-raclopride from human dopamine D2L receptor expressed in HEK293 after 1 hr

[7] = molecular target: T1, 5-hydroxytryptamine receptor 7
[8] = species on record: Mus musculus; assay: animal or person; settings: Swiss albino, ip, 20 min, read-out: ID50
Description: Antipsychotic activity in ip dosed Swiss albino mouse assessed as inhibition of (+/-)DOI-induced head twitch response after 20 mins

[9] = test system: Mus musculus; assay: Antidepressant activity in Swiss albino mouse assessed as reduction of immobility time at 10 mg/kg, ip measured during last 4 mins of a 6 mins test session by forced swim test; format: functional; parameters: scale not given: the % may be the effect or the level left; settings: route intraperitoneal
[10] = molecular target: T3, 5-hydroxytryptamine receptor 1A
Description: Agonist activity at human 5HT1A receptor expressed in CHO cells assessed as cAMP accumulation

[11] = molecular target: D(3) dopamine receptor (Homo sapiens) (UniProt P35462); assay: Displacement of [3H]-methylspiperone from human dopamine D3 receptor expressed in HEK293 at 10^-6 M after 1 hr; format: cell-based
D(3) dopamine receptor (Homo sapiens), sequence (P35462 whole entry): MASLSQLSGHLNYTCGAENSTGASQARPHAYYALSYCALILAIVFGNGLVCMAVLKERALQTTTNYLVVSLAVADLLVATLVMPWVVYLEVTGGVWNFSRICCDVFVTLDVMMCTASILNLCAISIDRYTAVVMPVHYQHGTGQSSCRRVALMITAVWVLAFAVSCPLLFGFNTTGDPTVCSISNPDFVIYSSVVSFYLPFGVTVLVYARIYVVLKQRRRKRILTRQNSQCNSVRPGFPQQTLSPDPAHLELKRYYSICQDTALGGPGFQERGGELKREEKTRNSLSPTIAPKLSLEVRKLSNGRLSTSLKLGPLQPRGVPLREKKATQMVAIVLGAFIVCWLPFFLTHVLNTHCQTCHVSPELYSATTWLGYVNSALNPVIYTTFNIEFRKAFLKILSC

[12] = test system: Mus musculus; assay: Toxicity in Swiss albino mouse assessed as locomotor activity at 20 mg/kg, ip measured after 2 to 6 mins; format: organism-based; parameters: dose 20 mg/kg, route intraperitoneal; settings: in vivo
[13] = molecular target: T2, 5-hydroxytryptamine receptor 6
Description: as §1

[14] = molecular target: D(3) dopamine receptor (Homo sapiens) (UniProt P35462); assay: Displacement of [3H]-methylspiperone from human dopamine D3 receptor expressed in HEK293 at 10^-7 M after 1 hr; format: cell-based
[15] = test system: Mus musculus; assay: Antidepressant activity in Swiss albino mouse assessed as reduction of immobility time at 20 mg/kg, ip measured during last 4 mins of a 6 mins test session by forced swim test; format: functional; parameters: scale not given: the % may be the effect or the level left; settings: route intraperitoneal
[16] = molecular target: T3, 5-hydroxytryptamine receptor 1A; remark: listed apart in the source
[17] = molecular target: T1, 5-hydroxytryptamine receptor 7; remark: listed apart in the source
[18] = test system: Mus musculus; assay: Toxicity in CD1 mouse assessed as increase of MK-801-evoked hyperactivity at 10 mg/kg, ip after 30 mins; format: organism-based; parameters: dose 10 mg/kg, route intraperitoneal; settings: in vivo, 0.5 h
[19] = species on record: Mus musculus; assay: animal or person; settings: Swiss albino, ip, read-out: ID50
Description: Antipsychotic activity in ip dosed Swiss albino mouse assessed as inhibition of apomorphine-induced climbing behavior administered 10 mins before apomorphine-challenge measured after 2 mins

[20] = molecular target: T4, Adrenergic receptor alpha-1 (Rattus norvegicus, UniProt P15823+P23944+P43140)
T4 sequence (P15823 whole entry): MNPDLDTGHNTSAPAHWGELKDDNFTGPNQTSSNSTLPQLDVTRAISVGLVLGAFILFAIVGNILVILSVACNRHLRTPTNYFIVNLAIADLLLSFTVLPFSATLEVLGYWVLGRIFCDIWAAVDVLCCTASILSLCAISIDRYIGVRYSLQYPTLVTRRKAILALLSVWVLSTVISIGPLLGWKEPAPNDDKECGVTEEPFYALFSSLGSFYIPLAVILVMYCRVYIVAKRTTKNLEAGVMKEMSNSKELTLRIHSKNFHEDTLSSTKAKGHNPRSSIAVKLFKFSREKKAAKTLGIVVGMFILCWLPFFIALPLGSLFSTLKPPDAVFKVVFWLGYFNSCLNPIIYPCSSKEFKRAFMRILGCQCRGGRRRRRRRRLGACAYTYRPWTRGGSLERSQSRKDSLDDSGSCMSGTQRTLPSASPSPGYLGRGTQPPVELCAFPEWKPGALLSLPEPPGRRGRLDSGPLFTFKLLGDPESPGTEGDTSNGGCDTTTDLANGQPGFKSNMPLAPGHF
T4 sequence (P23944 whole entry): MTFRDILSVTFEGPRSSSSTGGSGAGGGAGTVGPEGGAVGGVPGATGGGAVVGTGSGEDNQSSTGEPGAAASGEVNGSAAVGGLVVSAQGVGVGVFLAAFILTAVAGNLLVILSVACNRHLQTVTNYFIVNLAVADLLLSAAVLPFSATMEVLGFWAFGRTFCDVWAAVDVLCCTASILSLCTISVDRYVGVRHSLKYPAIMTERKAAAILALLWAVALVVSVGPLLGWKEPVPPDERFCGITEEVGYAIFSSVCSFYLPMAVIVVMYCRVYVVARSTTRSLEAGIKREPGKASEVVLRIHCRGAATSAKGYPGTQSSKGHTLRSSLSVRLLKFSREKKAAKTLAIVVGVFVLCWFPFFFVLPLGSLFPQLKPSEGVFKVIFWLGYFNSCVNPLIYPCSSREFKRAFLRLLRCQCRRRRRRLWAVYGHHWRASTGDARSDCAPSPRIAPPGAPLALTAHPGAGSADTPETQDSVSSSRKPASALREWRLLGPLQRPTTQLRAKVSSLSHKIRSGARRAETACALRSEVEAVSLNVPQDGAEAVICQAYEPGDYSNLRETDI
T4 sequence (P43140 whole entry): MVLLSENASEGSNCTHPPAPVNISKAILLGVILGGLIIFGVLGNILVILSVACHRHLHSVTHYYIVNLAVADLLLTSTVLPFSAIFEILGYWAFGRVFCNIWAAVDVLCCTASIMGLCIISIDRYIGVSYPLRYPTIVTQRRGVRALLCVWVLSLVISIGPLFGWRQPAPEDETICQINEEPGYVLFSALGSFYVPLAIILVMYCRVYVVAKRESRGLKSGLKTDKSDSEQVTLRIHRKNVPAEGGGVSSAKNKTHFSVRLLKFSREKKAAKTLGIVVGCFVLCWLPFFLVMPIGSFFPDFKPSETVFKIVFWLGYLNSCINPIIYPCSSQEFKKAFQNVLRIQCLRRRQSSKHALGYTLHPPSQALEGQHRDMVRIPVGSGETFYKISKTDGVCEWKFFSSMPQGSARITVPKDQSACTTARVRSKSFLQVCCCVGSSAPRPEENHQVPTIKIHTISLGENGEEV
Description: Displacement of [3H]-Prazosin from adrenergic alpha1 receptor in rat cortex after 30 mins by scintillation counting

[21] = test system: Mus musculus; assay: Antipsychotic activity in Swiss albino mouse assessed as inhibition of apomorphine-induced climbing behavior at 5 mg/kg, ip administered 10 mins before apomorphine-challenge measured after 2 mins; format: functional; settings: route intraperitoneal
[22] = test system: Mus musculus; assay: Toxicity in Swiss albino mouse assessed as locomotor activity at 5 to 20 mg/kg, ip measured after 2 to 6 mins; format: organism-based; parameters: route intraperitoneal; settings: in vivo
[23] = test system: Mus musculus; assay: Antipsychotic activity in CD1 mouse assessed as inhibition MK-801-evoked hyperactivity at 10 to 20 mg/kg, ip after 30 mins; format: functional, organism-based
[24] = test system: Mus musculus; assay: Antipsychotic activity in CD1 mouse assessed as inhibition MK-801-evoked hyperactivity at 2.5 to 20 mg/kg, ip after 30 mins; format: functional, organism-based
[25] = test system: Mus musculus; assay: Antidepressant activity in Swiss albino mouse assessed as reduction of immobility time at 5 mg/kg, ip measured during last 4 mins of a 6 mins test session by forced swim test; format: functional; parameters: scale not given: the % may be the effect or the level left; settings: route intraperitoneal
[26] = test system: Mus musculus; assay: Antipsychotic activity in Swiss albino mouse assessed as inhibition of apomorphine-induced climbing behavior at 2.5 mg/kg, ip administered 10 mins before apomorphine-challenge measured after 2 mins; format: functional, organism-based; parameters: dose 2.5 mg/kg
[27] = test system: Mus musculus; assay: Toxicity in CD1 mouse assessed as increase of MK-801-evoked hyperactivity at 20 mg/kg, ip after 30 mins; format: organism-based; parameters: dose 20 mg/kg, route intraperitoneal; settings: in vivo, 0.5 h

T1 sequence (P34969 whole entry): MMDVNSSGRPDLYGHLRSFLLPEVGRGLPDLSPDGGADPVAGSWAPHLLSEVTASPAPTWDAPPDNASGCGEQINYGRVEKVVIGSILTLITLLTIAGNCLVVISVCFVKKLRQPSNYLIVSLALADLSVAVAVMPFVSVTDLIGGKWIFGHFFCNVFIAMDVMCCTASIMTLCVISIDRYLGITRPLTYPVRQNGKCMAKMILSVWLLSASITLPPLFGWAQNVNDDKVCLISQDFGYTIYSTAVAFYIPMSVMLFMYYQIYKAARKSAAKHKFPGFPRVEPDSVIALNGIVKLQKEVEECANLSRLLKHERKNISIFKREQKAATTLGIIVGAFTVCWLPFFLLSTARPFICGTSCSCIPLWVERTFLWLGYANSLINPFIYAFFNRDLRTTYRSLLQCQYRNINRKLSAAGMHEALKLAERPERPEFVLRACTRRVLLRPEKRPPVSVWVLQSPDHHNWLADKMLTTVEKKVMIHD
5-hydroxytryptamine receptor 2A, sequence (P28223 whole entry): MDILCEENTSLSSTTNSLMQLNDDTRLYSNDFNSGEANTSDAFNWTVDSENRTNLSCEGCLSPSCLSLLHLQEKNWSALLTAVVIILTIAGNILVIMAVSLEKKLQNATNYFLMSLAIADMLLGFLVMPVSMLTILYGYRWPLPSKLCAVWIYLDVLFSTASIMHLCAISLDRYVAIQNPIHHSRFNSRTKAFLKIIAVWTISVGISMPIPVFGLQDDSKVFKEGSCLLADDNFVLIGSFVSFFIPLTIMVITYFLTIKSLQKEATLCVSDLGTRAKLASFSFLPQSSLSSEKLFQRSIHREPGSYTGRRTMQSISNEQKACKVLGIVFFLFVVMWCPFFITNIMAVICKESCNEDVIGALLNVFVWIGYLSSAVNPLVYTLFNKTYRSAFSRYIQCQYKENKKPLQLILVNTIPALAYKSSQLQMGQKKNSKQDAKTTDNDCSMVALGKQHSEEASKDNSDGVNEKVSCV

Structure (SMILES)	Ki [1] [nM]	Ki [2] [nM]	Ki [3] [nM]	Ki [4] [nM]	Ki [5] [nM]	Ki [6] [nM]	EC50 [10] [nM]	inhibition [11] [%]	inhibition [14] [%]	IC50 [17] [nM]	Ki [20] [nM]	ED50 [8] [mg/kg]	Activity [9] [%]	Activity [15] [%]	ED50 [19] [mg/kg]	inhibition in vivo at 5 mg/kg [21] [%]	Activity [22]	other results
O=S(=O)(NCCCCN1CCN(c2cccc(Cl)c2Cl)CC1)c1ccc2cccnc2c1	22	–	–	–	788	11	865	101	99	3800	136	4.58	48	41	19.9	43.6	–	Ki [7]: 31 nM; Activity [12]: Toxic; Ki [13]: 301 nM; Ki [16]: 17 nM; Activity [18]: Toxic
O=S(=O)(NCCCCN1CCN(c2cccc(Cl)c2Cl)CC1)c1cncc2ccccc12	90	21	220	59	783	8	15000	95	93	820	160	5.3	–	44	11.3	44.6	Non-toxic	inhibition [23]: Active
O=S(=O)(NCCCN1CCN(c2cccc(Cl)c2Cl)CC1)c1cnc2ccc(Cl)cc2c1	115	46	901	23	–	–	–	–	–	–	–	–	–	–	–	–	–	–
O=S(=O)(NCCCN1CCN(c2cccc(Cl)c2Cl)CC1)c1ccc2cccnc2c1	47	–	–	–	224	16	7400	99	90	2800	186	10.2	79	–	–	50.5	Non-toxic	Activity [25]: 57%; Activity [26]: Active; Ki [7]: 12 nM; Activity [27]: Toxic; Ki [13]: 257 nM; Ki [16]: 14 nM
O=S(=O)(NCCCN1CCN(c2cccc(Cl)c2Cl)CC1)c1ccc2ncccc2c1	65	31	326	25	–	–	–	–	–	–	–	–	–	–	–	–	–	–
CSc1ccc2c(c1)C(CCN)=CC2 [METHIOTHEPINE]	–	–	–	–	–	–	–	–	–	2.2	–	–	–	–	–	–	–	–

Further compounds by falling Ki [1], results first:

Ki [1] [nM]	Ki [2] [nM]	Ki [3] [nM]	Ki [4] [nM]	Ki [5] [nM]	Ki [6] [nM]	EC50 [10] [nM]	inhibition [11] [%]	inhibition [14] [%]	IC50 [17] [nM]	Ki [20] [nM]	Structure (SMILES)	ED50 [8] [mg/kg]	Activity [9] [%]	Activity [15] [%]	ED50 [19] [mg/kg]	inhibition in vivo at 5 mg/kg [21] [%]	Activity [22]	other results
42	41	555	88	–	–	–	–	–	–	–	O=S(=O)(NCCCCN1CCN(c2cccc(Cl)c2Cl)CC1)c1cnc2ccc(Cl)cc2c1	–	–	–	–	–	–	–
34	30	1330	23	1200	9	1650	99	94	7800	170	O=S(=O)(NCCCCN1CCN(c2cccc(Cl)c2Cl)CC1)c1cnc2ccccc2c1	20.2	31	30	20.7	49.3	Non-toxic	inhibition [24]: inactive
29	27	598	112	–	–	–	–	–	–	–	O=S(=O)(NCCCCN1CCN(c2cccc(Cl)c2Cl)CC1)c1cccc2cccnc12	–	–	–	–	–	–	–
23	124	484	79	–	–	–	–	–	–	–	O=S(=O)(NCCCCN1CCN(c2cccc(Cl)c2Cl)CC1)c1ccc2ncccc2c1	–	–	–	–	–	–	–
